Reference: US6472348B1, “Pyridone derivatives and herbicides” (Kumiai Chemical Industry Co., Ltd., priority 1996, dated 2002)

Tests used:
[1] = test system: slender amaranth (Am); experiment: Test Example 4: crop plant selectivity by upland field soil treatment (cotton), herbicidal effects; type: in vivo; set-up: scale not given here; settings: dose 6.3 g ai/10 a, evaluated 21st day after application
Description: (§1) (Test on Crop Plant Selectivity by Upland Field Soil Treatment)
(§2) In a plastic pot (surface area: 600 cm^2) filled with sand, cotton (Go), Diaitaria ciliaris (Di), green foxtail (Se), pale smartweed (Po), slender amaranth (Am), common lambsquarters (Ch) and China jute (Ab) were sown and covered with soil. […] The plants were then cultured in a green house, and the evaluation of the herbicidal effects and phytotoxicity was conducted on the 21st day after the application in accordance with the standards as identified in Table 47. Symbol—represents “not tested”.

[2] = test system: pale smartweed (Po); experiment: as above; type: in vivo; set-up: scale not given here; settings: dose 6.3 g ai/10 a, evaluated 21st day after application
Description: as §1, §2

[3] = test system: green foxtail (Se); experiment: as above; type: in vivo; set-up: scale not given here; settings: dose 6.3 g ai/10 a, evaluated 21st day after application
Description: as §1, §2

[4] = test system: China jute (Ab); experiment: as above; type: in vivo; set-up: scale not given here; settings: dose 6.3 g ai/10 a, evaluated 21st day after application
Description: as §1, §2

[5] = test system: common lambsquarters (Ch); experiment: as above; type: in vivo; set-up: scale not given here; settings: dose 6.3 g ai/10 a, evaluated 21st day after application
Description: as §1, §2

[6] = test system: wheat (Tr); experiment: Test Example 9: crop plant selectivity by upland field foliage treatment (wheat), phytotoxicity; settings: dose 1.6 g ai/10a, 14th day after treatment;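 also: grade of crop injury; 5 = at least 90%; 4 = 70 to 90%; 3 = 50 to 70%; 2 = 30 to 50%; 1 = 10 to 30%; 0 = under 10%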
Description: (§3) (Test on Crop Plant Selectivity by Upland Field Foliage Treatment)
(§4) In a plastic pot (surface area: 600 cm^2) filled with sand, wheat (Tr), pale smartweed (Po), slender amaranth (Am), common lambsquarters (Ch) and China jute (Ab) were sown and cultured in a green house for 2 weeks. […] The plants were then cultured in a green house, and the evaluation of the herbicidal effects and phytotoxicity was conducted on the 14th day after the treatment in accordance with the standards as identified in Table 47.

[7] = test system: Digitaria ciliaris (Di); experiment: Test Example 2: herbicidal effects by upland field soil treatment; type: in vivo; settings: 100 g of the active ingredient per 10 ares;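 also: grade of growth control; 5 = at least 90%; 4 = 70 to 90%; 3 = 50 to 70%; 2 = 30 to 50%; 1 = 10 to 30%; 0 = under 10%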
Excerpt: (§5) (Test on Herbicidal Effects by Upland Field Soil Treatment)

[8] = test system: rice flatsedge (Ci); experiment: as above; type: in vivo; settings: 100 g of the active ingredient per 10 ares
Excerpt: as §5

[9] = test system: slender amaranth (Am); experiment: as above; type: in vivo; settings: 100 g of the active ingredient per 10 ares
Excerpt: as §5

[10] = test system: pale smartweed (Po); experiment: as above; type: in vivo; settings: 100 g of the active ingredient per 10 ares
Excerpt: as §5

[11] = test system: common lambsquarters (Ch); experiment: as above; type: in vivo; settings: 100 g of the active ingredient per 10 ares
Excerpt: as §5

[12] = test system: barnyardgrass (Ec); experiment: as above; type: in vivo; settings: 100 g of the active ingredient per 10 ares
Excerpt: as §5

[13] = test system: soybean (Gl); experiment: Test Example 6: crop plant selectivity by upland field soil treatment (soybean), phytotoxicity; type: in vivo; set-up: scale not given here; settings: dose 6.3 g ai/10a, 21st day after application
Description: as §1
(§6) In a plastic pot (surface area: 600 cm^2) filled with sand, soybean (Gl), Diaitaria ciliaris (Di), green foxtail (Se), Johnsongrass (So), pale smartweed (Po), slender amaranth (Am), common lambsquarters (Ch) and China jute (Ab) were sown and covered with soil. […] The plants were then cultured in a green house, and the evaluation of the herbicidal effects and phytotoxicity was conducted on the 21st day after the application in accordance with the standards as identified in Table 47. Symbol—represents “not tested”.

[14] = test system: cotton (Go); experiment: Test Example 4: crop plant selectivity by upland field soil treatment (cotton), phytotoxicity; type: in vivo; set-up: scale not given here; settings: dose 6.3 g ai/10 a, evaluated 21st day after application
Description: as §1, §2

[15] = test system: slender amaranth (Am); experiment: Test Example 6: crop plant selectivity by upland field soil treatment (soybean), herbicidal effects; type: in vivo; set-up: scale not given here; settings: dose 6.3 g ai/10a, 21st day after application
Description: as §1, §6

[16] = test system: pale smartweed (Po); experiment: as above; type: in vivo; set-up: scale not given here; settings: dose 6.3 g ai/10a, 21st day after application
Description: as §1, §6

[17] = test system: green foxtail (Se); experiment: as above; type: in vivo; set-up: scale not given here; settings: dose 6.3 g ai/10a, 21st day after application
Description: as §1, §6

[18] = test system: China jute (Ab); experiment: as above; type: in vivo; set-up: scale not given here; settings: dose 6.3 g ai/10a, 21st day after application
Description: as §1, §6

[19] = test system: common lambsquarters (Ch); experiment: as above; type: in vivo; set-up: scale not given here; settings: dose 6.3 g ai/10a, 21st day after application
Description: as §1, §6

[20] = test system: slender amaranth (Am); experiment: Test Example 9: crop plant selectivity by upland field foliage treatment (wheat), herbicidal effects; type: in vivo; set-up: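 grade of growth control; 5 = at least 90%; 4 = 70 to 90%; 3 = 50 to 70%; 2 = 30 to 50%; 1 = 10 to 30%; 0 = under 10%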; settings: dose 1.6 g ai/10a, 14th day after treatment
Description: as §3, §4

[21] = test system: pale smartweed (Po); experiment: as above; type: in vivo; set-up: scale not given here; settings: dose 1.6 g ai/10a, 14th day after treatment
Description: as §3, §4

[22] = test system: China jute (Ab); experiment: as above; type: in vivo; set-up: scale not given here; settings: dose 1.6 g ai/10a, 14th day after treatment
Description: as §3, §4

[23] = test system: common lambsquarters (Ch); experiment: as above; type: in vivo; set-up: scale not given here; settings: dose 1.6 g ai/10a, 14th day after treatment
Description: as §3, §4

[24] = test system: wheat (Tr); experiment: Test Example 5: crop plant selectivity by upland field soil treatment (wheat), phytotoxicity; type: in vivo; set-up: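 grade of crop injury; 5 = at least 90%; 4 = 70 to 90%; 3 = 50 to 70%; 2 = 30 to 50%; 1 = 10 to 30%; 0 = under 10%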; settings: dose 6.3 g ai/10a, 21st day after application
Description: as §1
(§7) In a plastic pot (surface area: 600 cm^2) filled with sand, wheat (Tr), Diaitaria ciliaris (Di), green foxtail (Se), pale smartweed (Po), slender amaranth (Am), common lambsquarters (Ch) and China jute (Ab) were sown and covered with soil. […] The plants were then cultured in a green house, and the evaluation of the herbicidal effects and phytotoxicity was conducted on the 21st day after the application in accordance with the standards as identified in Table 47. Symbol—represents “not tested”.

[25] = test system: slender amaranth (Am); experiment: Test Example 5: crop plant selectivity by upland field soil treatment (wheat), herbicidal effects; type: in vivo; set-up: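 grade of growth control; 5 = at least 90%; 4 = 70 to 90%; 3 = 50 to 70%; 2 = 30 to 50%; 1 = 10 to 30%; 0 = under 10%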; settings: dose 6.3 g ai/10a, 21st day after application
Description: as §1, §7

[26] = test system: pale smartweed (Po); experiment: as above; type: in vivo; set-up: scale not given here; settings: dose 6.3 g ai/10a, 21st day after application
Description: as §1, §7

[27] = test system: green foxtail (Se); experiment: as above; type: in vivo; set-up: scale not given here; settings: dose 6.3 g ai/10a, 21st day after application
Description: as §1, §7

[28] = test system: China jute (Ab); experiment: as above; type: in vivo; set-up: scale not given here; settings: dose 6.3 g ai/10a, 21st day after application
Description: as §1, §7

[29] = test system: common lambsquarters (Ch); experiment: as above; type: in vivo; set-up: scale not given here; settings: dose 6.3 g ai/10a, 21st day after application
Description: as §1, §7

[30] = test system: rice flatsedge (Ci); experiment: Test Example 3: herbicidal effects by upland field foliage treatment; type: in vivo; set-up: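 grade of growth control; 5 = at least 90%; 4 = 70 to 90%; 3 = 50 to 70%; 2 = 30 to 50%; 1 = 10 to 30%; 0 = under 10%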
In short: (§8)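 Post-emergence upland foliage test. Seedlings grown 2 weeks under glass in pots (120 cm^2) of sand, seed topped with soil; treated on the foliage, kept in greenhouse, then assessed at day 14 using rating standards.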

[31] = test system: slender amaranth (Am); experiment: as above; type: in vivo; set-up: scale not given here
In short: as §8

[32] = test system: pale smartweed (Po); experiment: as above; type: in vivo; set-up: scale not given here
In short: as §8

[33] = test system: common lambsquarters (Ch); experiment: as above; type: in vivo; set-up: scale not given here
In short: as §8

[34] = test system: Diaitaria ciliaris (Di); experiment: as above; type: in vivo; set-up: scale not given here
In short: as §8

[35] = test system: barnyardgrass (Ec); experiment: as above; type: in vivo; set-up: scale not given here
In short: as §8

[36] = test system: bulrush (Sc); experiment: Test Example 1: herbicidal effects by paddy field soil treatment; type: in vivo; settings: 100 g of the active ingredient per 10 ares, 21st day after the application, index 0-5 of Table 47;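 also: grade of growth control; 5 = at least 90%; 4 = 70 to 90%; 3 = 50 to 70%; 2 = 30 to 50%; 1 = 10 to 30%; 0 = under 10%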
In short: (§9)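 Flooded paddy-soil pots (3 cm water) sown after puddling/leveling; treatment 100 g a.i./10 ares; greenhouse culture; herbicidal effect rated visually on a scoring scale at 21 d post-application.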

[37] = test system: monochoria (Mo); experiment: as above; type: in vivo; settings: 100 g of the active ingredient per 10 ares, 21st day after the application, index 0-5 of Table 47;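 also: grade of growth control; 5 = at least 90%; 4 = 70 to 90%; 3 = 50 to 70%; 2 = 30 to 50%; 1 = 10 to 30%; 0 = under 10%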
In short: as §9

[38] = test system: barnyardgrass (Ec); experiment: as above; type: in vivo; settings: 100 g of the active ingredient per 10 ares, 21st day after the application, index 0-5 of Table 47
In short: as §9

[39] = evaluated on the 21st day after application
[40] = 100 g active ingredient per 10 ares, evaluated 14th day after treatment
[41] = 21st day after the application, index 0-5 of Table 47
[42] = 100 g of the active ingredient per 10 ares, evaluated on the 14th day after treatment

| Structure (SMILES) | Herbicidal effects Am [1] | Herbicidal effects Po [2] | Herbicidal effects Se [3] | Herbicidal effects Ab [4] | Herbicidal effects Ch [5] | Phytotoxicity Gl [13] | Phytotoxicity Go [14] | Herbicidal effects Am [15] | Herbicidal effects Po [16] | Herbicidal effects Se [17] | Herbicidal effects Ab [18] | Herbicidal effects Ch [19] | Phytotoxicity Tr [24] | Herbicidal effects Am [25] | Herbicidal effects Po [26] | Herbicidal effects Se [27] | Herbicidal effects Ab [28] | Herbicidal effects Ch [29] | Herbicidal effects Sc [36] | Herbicidal effects Mo [37] | further results |
| --- | --- | --- | --- | --- | --- | --- | --- | --- | --- | --- | --- | --- | --- | --- | --- | --- | --- | --- | --- | --- | --- |
| CCN1C(=O)COc2cc(F)c(-c3ccc(C(F)(F)F)n(C)c3=O)cc21 [Compound 2-15] | 5 | 5 | 5 | 5 | 5 | 1 | 0 | 5 | 5 | 5 | 5 | 5 | 1 | 5 | 5 | 5 | 5 | 5 | 5 | 5 | Phytotoxicity Tr [6]: 2; Herbicidal effects Di [7, 39]: 5; Herbicidal effects Ci [8, 39]: 5; Herbicidal effects Am [9, 39]: 5; Herbicidal effects Po [10, 39]: 5; Herbicidal effects Ch [11, 39]: 5; Herbicidal effects Ec [12, 39]: 5; Herbicidal effects Am [20]: 5; Herbicidal effects Po [21]: 5; Herbicidal effects Ab [22]: 5; Herbicidal effects Ch [23]: 5; Herbicidal effects Ci [30, 40]: 5; Herbicidal effects Am [31, 40]: 5; Herbicidal effects Po [32, 40]: 5; Herbicidal effects Ch [33, 40]: 5; Herbicidal effects Di [34, 40]: 5; Herbicidal effects Ec [35, 40]: 5; Herbicidal effects Ec [38]: 5 |
| C=C(C)COc1cc(-c2ccc(C(F)(F)F)n(C)c2=O)c(F)cc1Cl [1-151] | 5 | 5 | 5 | 5 | 5 | 0 | 1 | 5 | 5 | 5 | 5 | 5 | 2 | 5 | 5 | 5 | 5 | 5 | 5 | 5 | Herbicidal effects Di [7, 41]: 5; Herbicidal effects Ci [8, 41]: 5; Herbicidal effects Am [9, 41]: 5; Herbicidal effects Po [10, 41]: 5; Herbicidal effects Ch [11, 41]: 5; Herbicidal effects Ec [12, 41]: 5; Herbicidal effects Ci [30, 42]: 5; Herbicidal effects Am [31, 42]: 5; Herbicidal effects Po [32, 42]: 5; Herbicidal effects Ch [33, 42]: 5; Herbicidal effects Di [34, 42]: 5; Herbicidal effects Ec [35, 42]: 5; Herbicidal effects Ec [38]: 5 |
| C#CCN1C(=O)C(C)Oc2cc(Cl)c(-c3ccc(C(F)(F)F)n(C)c3=O)cc21 (centres unmarked) [Compound No. 2′-1, 3-[7-chloro-2,3-dihyro-2-methyl-4-(2-propynyl)-1,4-benzoxazin-3-on-6-yl]-6-trifluoromethyl-1-methyl-2(1H)-pyridone] | 5 | 5 | 5 | 5 | 5 | 1 | 1 | 5 | 5 | 5 | 5 | 5 | 2 | 5 | 5 | 5 | 5 | 5 | 5 | 5 | Herbicidal effects Di [7, 39]: 5; Herbicidal effects Ci [8, 39]: 5; Herbicidal effects Am [9, 39]: 5; Herbicidal effects Po [10, 39]: 5; Herbicidal effects Ch [11, 39]: 5; Herbicidal effects Ec [12, 39]: 5; Herbicidal effects Ci [30, 40]: 5; Herbicidal effects Am [31, 40]: 5; Herbicidal effects Po [32, 40]: 5; Herbicidal effects Ch [33, 40]: 5; Herbicidal effects Di [34, 40]: 5; Herbicidal effects Ec [35, 40]: 5; Herbicidal effects Ec [38]: 5 |
